# Test system: TU-2449 tumors
# Assay: HPLC analysis of 5-FC and 5-FU in excised TU-2449 tumors
# Type: in vivo, mice
# Conditions: Groups 2 and 3: PBS instead of vector, 5-FC 250 or 500 mg/kg IP
# Method: The study consisted of 6 groups of female mice (see Table below). All groups underwent intracranial administration into the right striatum of 1E4 TU-2449 cells administered/mouse on Day 0. At Day 4, all groups received intracranial/intratumoral administration of AC3-YCD2 (V) vector at 2.4E6 TU/5 ul (Lot#T511019) or PBS buffer control.
# AC3-yCD2 (V) (5 μL) was infused at 0.33 μL per minute (15 minutes, followed by a hold of 5 minutes) intracranially at the same coordinates as TU-2449 cells were injected.
# From each brain, tumors were isolated and trimmed if large enough for multiple analyses (more than 0.05 g). Tumors sections for HPLC analysis were crushed in a 1.5 mL centrifuge tube using a plunger from a 1 mL syringe. Crushed samples were mixed with 150 uL RIPA buffer and vortexed vigorously for 10 minutes. Samples were spun at 4° C. at 20000 rcf for 10 minutes. Supernatants were removed and mixed thoroughly with 150 uL of 10% trichloroacetic acid and spun as above. […] Data was expressed in relative milli absorbance units (mAU) of peak area from the chromatograms.
compound,measurement,value
"Nc1nc(=O)[nH]cc1F [5-FC, 5-fluorocytosine]",5-FC and 5-FU HPLC signals in tumor,detectable 5-FC signals but no signal for 5-FU
